In ChEMBL document CHEMBL3351755, “Elements and modulation of functional dynamics” (J Med Chem, 2014):

Key:
[1] = Binding affinity to Escherichia coli ribose binding protein by NMR analysis
[2] = Binding affinity to mouse major urinary protein by NMR analysis
[3] = target: Galectin-3 (Homo sapiens, UniProt P17931); assay: Binding affinity to galectin-3 (unknown origin)
[4] = Binding affinity to ketosteroid isomerase (unknown origin) by NMR analysis
[5] = target: T1, 6-phosphogluconolactonase (Trypanosoma brucei, UniProt Q9GRG6); assay: Binding affinity to Trypanosoma brucei 6-phospho-gluconalactonase by NMR analysis
T1 sequence (Q9GRG6 whole entry): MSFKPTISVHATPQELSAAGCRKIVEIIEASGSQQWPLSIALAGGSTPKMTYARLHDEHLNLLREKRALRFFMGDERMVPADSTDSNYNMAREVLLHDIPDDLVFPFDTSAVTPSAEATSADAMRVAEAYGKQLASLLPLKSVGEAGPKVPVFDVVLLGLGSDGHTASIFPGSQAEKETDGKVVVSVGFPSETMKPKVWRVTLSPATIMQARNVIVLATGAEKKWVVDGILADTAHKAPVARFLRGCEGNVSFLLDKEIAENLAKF

[6] = target: T2, Thiopurine S-methyltransferase (Homo sapiens, UniProt P51580); assay: Binding affinity to thiopurine methyltransferase (unknown origin) by NMR analysis
T2 sequence (P51580 whole entry): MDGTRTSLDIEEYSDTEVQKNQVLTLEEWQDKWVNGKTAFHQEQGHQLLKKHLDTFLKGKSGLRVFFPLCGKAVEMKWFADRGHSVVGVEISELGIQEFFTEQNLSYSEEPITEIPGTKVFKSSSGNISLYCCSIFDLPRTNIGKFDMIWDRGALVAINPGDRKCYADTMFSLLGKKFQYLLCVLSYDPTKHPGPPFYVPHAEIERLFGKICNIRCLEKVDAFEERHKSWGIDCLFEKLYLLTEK

[7] = Binding affinity to oxalocrotonate tautomerase (unknown origin) by NMR analysis
[8] = Binding affinity to Escherichia coli glucose/galactose binding protein by NMR analysis
[9] = Binding affinity to quail siderocalin Q83 by NMR analysis; design: species or system Galliformes
[10] = Binding affinity to hen egg-white lysozyme by NMR analysis; design: species or system Gallus gallus

Galectin-3, sequence (P17931 whole entry): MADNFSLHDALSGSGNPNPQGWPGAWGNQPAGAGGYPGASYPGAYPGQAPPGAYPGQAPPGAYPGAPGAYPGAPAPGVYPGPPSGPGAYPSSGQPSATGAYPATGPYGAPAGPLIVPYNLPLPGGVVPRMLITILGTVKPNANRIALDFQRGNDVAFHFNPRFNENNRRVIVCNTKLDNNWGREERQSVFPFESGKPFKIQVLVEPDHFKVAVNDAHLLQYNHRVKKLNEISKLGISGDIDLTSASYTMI

O[C@@H]1[C@H](O)[C@H](O)CO[C@H]1O [RIBOSE (PYRANOSE)]
Kd [1]: 0.17 µM

CCC(C)C1=NCCS1 (stereo not drawn)
Kd [2]: 0.9 µM

COc1c(F)c(F)c(C(=O)N[C@H]2[C@@H](O)[C@@H](CO)O[C@@H](O[C@H]3[C@H](O)[C@@H](NC(C)=O)C(O)O[C@@H]3CO)[C@@H]2O)c(F)c1F (stereo partly drawn)
Kd [3]: 3.3 µM

COc1nccnc1CC(C)C
Kd [2]: 0.3 µM

C[C@]12CC[C@H]3[C@@H](CCC4=CC(=O)CC[C@@H]43)[C@@H]1CC[C@@H]2O
Kd [4]: 5.5 µM

O=C(O)[C@H](O)[C@@H](O)[C@H](O)[C@H](O)COP(=O)(O)O
Kd [5]: 10 µM

CC(=O)N[C@H]1C(O)O[C@H](CO)[C@@H](O[C@@H]2O[C@H](CO)[C@H](O)[C@H](NC(=O)c3ccccc3)[C@H]2O)[C@@H]1O (stereo partly drawn)
Kd [3]: 18.2 µM

Nc1ncnc2c1ncn2[C@@H]1O[C@H](C[C@@H](N)CC[C@H](N)C(=O)O)[C@@H](O)[C@H]1O [SINEFUNGIN]
Kd [6]: 10 µM

CC1(C)SCN(C(=O)[C@@H](CS)Cc2ccccc2)[C@H]1C(=O)O
Kd [7]: 590 µM

OC[C@H]1OC(O)[C@H](O)[C@@H](O)[C@@H]1O (stereo partly drawn) [DEXTROSE]
Kd [8]: 0.29 µM

c1ccc(Nc2cccc3ccccc23)cc1
Kd [2]: 0.032 µM

O=C(N[C@H]1COC(=O)[C@@H](NC(=O)c2cccc(O)c2O)COC(=O)[C@@H](NC(=O)c2cccc(O)c2O)COC1=O)c1cccc(O)c1O [ENTEROBACTIN]
Kd [9]: 0.0005 µM

N[C@H]1[C@H](O[C@H]2[C@H](O)[C@@H](N)[C@H](O[C@H]3[C@H](O)[C@@H](N)C(O)O[C@@H]3CO)O[C@@H]2CO)O[C@H](CO)[C@@H](O)[C@@H]1O (stereo partly drawn)
Kd [10]: 14 µM
